Measurements from ChEMBL document CHEMBL3507680, “University of Dundee, Gates Library screen for HepG2 cell viability”.

Test: Human HepG2 cell viability assay in 384 well format
Format: toxicity, cell-based
Set-up: dose 125 nL, time 70.5 hour; cytotoxicity at 70.5 h: concentration not given beside the values
Conditions: HepG2 cells, read-out: Inhibition

## FC(F)(F)c1nnc2n1CCN(c1nc(C3CC3)ns1)C2
  cytotoxicity at 70.5 h: -1.08%

## COCCC(=O)NCCCOC1CCCc2ccccc21 (configuration not stated)
  cytotoxicity at 70.5 h: 1.55%

## Cn1cc(C2CCCN2C(=O)CCn2ccc3ccccc32)cn1 (configuration not stated)
  cytotoxicity at 70.5 h: 3.44%

## COc1cccc(COCC(O)CN(C)c2ccc(C)cc2C)c1 (configuration not stated)
  cytotoxicity at 70.5 h: -0.324%

## Cn1cc(C2CCCN2C(=O)Cn2ccc3ccccc32)cn1 (configuration not stated)
  cytotoxicity at 70.5 h: -0.47%

## Cc1ccc(N(C)CC(O)COCc2ccccc2F)c(C)c1 (configuration not stated)
  cytotoxicity at 70.5 h: -0.728%

## COc1c(CNCCC(=O)Nc2cccc(C)n2)c(C)nn1C
  cytotoxicity at 70.5 h: -1.12%

## CC(C)N(Cc1cccnc1)C(=O)CCSc1ccc(C#N)cc1
  cytotoxicity at 70.5 h: 5.31%

## CCCc1cc(NC(=O)c2cc(N3CCNC3=O)c(F)cc2F)n[nH]1
  cytotoxicity at 70.5 h: 1.56%

## Cc1cc(CS(=O)(=O)CC(=O)N2c3ccccc3CC2C)no1 (configuration not stated)
  cytotoxicity at 70.5 h: -0.335%

## Cc1noc(C)c1CS(=O)(=O)CC(=O)N1c2ccccc2CC1C (configuration not stated)
  cytotoxicity at 70.5 h: -12%

## CN(C)C(CNCc1nc(-c2ccsc2)no1)c1cccs1 (configuration not stated)
  cytotoxicity at 70.5 h: -8.94%

## Cc1cc(C)c(CNc2ncnc3c2cnn3C)c(=O)[nH]1
  cytotoxicity at 70.5 h: -11.1%

## CC(C)N(Cc1cccnc1)C(=O)CNc1ccc(C#N)cc1
  cytotoxicity at 70.5 h: -12.5%

## N#Cc1ccc(OC2CCN(CC(=O)NCC3CCCO3)CC2)cc1 (configuration not stated)
  cytotoxicity at 70.5 h: -5%

## O=C(CCCNC(=O)Nc1ccc(F)cc1)Nc1cn[nH]c1
  cytotoxicity at 70.5 h: -7.73%

## CCCc1cc(NC(=O)c2ccc(Cl)c(N3CCNC3=O)c2)n[nH]1
  cytotoxicity at 70.5 h: 11.9%

## CS(=O)(=O)c1nccn1Cc1ccc(F)cc1Cl
  cytotoxicity at 70.5 h: -6.78%

## CC(Nc1ccc(Oc2cccc(C#N)c2)cc1)C(=O)NC1CC1 (configuration not stated)
  cytotoxicity at 70.5 h: -3.83%

## CNS(=O)(=O)c1cc(C(=O)N(C)Cc2sccc2C)c(C)o1
  cytotoxicity at 70.5 h: -5.52%

## CC1CN(Cc2ccccc2)CCCN1CCCS(C)(=O)=O (configuration not stated)
  cytotoxicity at 70.5 h: -4.81%

## COc1ccc(S(=O)(=O)Cc2noc(CC(C)C)n2)cc1
  cytotoxicity at 70.5 h: 5.74%

## Cc1ccc(N2CCc3ncnc(C)c3CC2)nn1
  cytotoxicity at 70.5 h: 18.8%

## O=C(NC[C@@H]1C[C@@H]2CN(C(=O)CO)C[C@H]2O1)c1ccsc1
  cytotoxicity at 70.5 h: 21%

## O=C(NCC1CC2(CO1)CN(c1ncccn1)C2)C1CCC1 (configuration not stated)
  cytotoxicity at 70.5 h: 2.73%

## COc1cc(N2CC[C@@H]3[C@@H](CC2)OCCN3CC2CC2)ncn1
  cytotoxicity at 70.5 h: -4.1%

## Cn1cc(CN2C[C@H]3CCC[C@@]3(COc3cccnc3)C2)cn1
  cytotoxicity at 70.5 h: -2.32%

## CCN(CC)c1ncnc2c1CCN(c1ccc(C)nn1)CC2
  cytotoxicity at 70.5 h: -1.7%

## Cn1cccc1C(=O)NC[C@H]1C[C@@H]2CN(C(=O)c3ccco3)C[C@@H]2O1
  cytotoxicity at 70.5 h: -1.72%

## CCN(C)c1ncnc2c1CCN(c1ccc(C)nn1)CC2
  cytotoxicity at 70.5 h: -2.59%

## O=C(c1ccco1)N1CCCC2(C1)CN(c1nncs1)CCO2 (configuration not stated)
  cytotoxicity at 70.5 h: -5.17%

## Cc1cc(CN2CC[C@H]3C[C@@H](c4nc(C5CC5)cs4)O[C@@H]3C2)no1
  cytotoxicity at 70.5 h: -2.95%

## CC1N(c2cnn(C)c2)C(=O)COC12CCN(Cc1ccoc1)CC2 (configuration not stated)
  cytotoxicity at 70.5 h: 2.62%

## O=S(=O)(C1CC1)N1CCCn2nnc(Cn3cccc3)c2C1
  cytotoxicity at 70.5 h: -8.69%

## CCS(=O)(=O)N1CCCn2nnc(Cn3cccc3)c2C1
  cytotoxicity at 70.5 h: -5.99%

## CCN1CC2(CC1=O)CN(C(C)=O)CCN(C(=O)NC(C)C)C2 (configuration not stated)
  cytotoxicity at 70.5 h: -8.93%

## CCn1nc(C)cc1C(=O)N1C[C@@H]2C[C@@H](c3nnc(C)[nH]3)O[C@@H]2C1
  cytotoxicity at 70.5 h: -12.7%

## Cc1nc(CN2CCN(C)C(=O)C23CCN(CC2CCCC2)CC3)cs1
  cytotoxicity at 70.5 h: -9.21%

## Cc1ccc(N2C[C@@H]3OCCN(Cc4c(C)noc4C)[C@@H]3C2)nn1
  cytotoxicity at 70.5 h: -1.63%

## CC(=O)N1CCn2c(C(=O)N(C)C)cnc2C1
  cytotoxicity at 70.5 h: -29.5%

## COCCNC(=O)[C@H]1CN(c2nnc(C)s2)C[C@H]2OCC[C@@H]12
  cytotoxicity at 70.5 h: -17.6%

## Cn1cnc2c1C(COCC1CCOCC1)CN(C(=O)c1ccoc1)C2 (configuration not stated)
  cytotoxicity at 70.5 h: 11.3%

## Cc1cccc(CN2C(=O)CC[C@@H]3[C@H]2CCN3CC2CCOCC2)n1
  cytotoxicity at 70.5 h: -18.9%

## Cn1c2c(ccc1=O)CC(NS(C)(=O)=O)CC2 (configuration not stated)
  cytotoxicity at 70.5 h: 27.8%

## CS(=O)(=O)NC1CCc2c(ccc(=O)n2CC2CC2)C1 (configuration not stated)
  cytotoxicity at 70.5 h: -15.1%

## CC(C)CC(=O)N1CCc2nc(N3CCOCC3)nc(NC(C)C)c2C1
  cytotoxicity at 70.5 h: -15.8%

## O=C(Cc1ccccn1)N1CCN(CC2CC2)c2ncccc2C1
  cytotoxicity at 70.5 h: -4.27%

## O=C(c1ccoc1)N1CC[C@@H]2[C@H]1CCC(=O)N2c1ccccc1
  cytotoxicity at 70.5 h: -7.05%

## Cc1ccc(C(=O)N2CC[C@@H]3[C@H]2CCC(=O)N3c2ccccc2)o1
  cytotoxicity at 70.5 h: -13.7%

## Cn1nnc2c1CCN(Cc1ccccc1)C2COCC1CC1 (configuration not stated)
  cytotoxicity at 70.5 h: -3.64%

## COCCO[C@H]1CCN(C(=O)C2CCOCC2)[C@H]1Cc1ccncc1
  cytotoxicity at 70.5 h: 29.3%

## Cn1cccc1C(=O)N1CCC2(CC1)CN(c1cncnc1)C(=O)CO2
  cytotoxicity at 70.5 h: 8.12%

## O=C(c1ccco1)N1CC[C@H]2[C@H]1CCN2CC1CCOCC1
  cytotoxicity at 70.5 h: 5.37%

## O=C(c1ccc[nH]1)N1CCn2cc(Cn3cncn3)nc2C1
  cytotoxicity at 70.5 h: -9.02%

## C[C@@H]1CN(C(=O)NC2CC2)C[C@]12CCN(c1ccsc1)C2=O
  cytotoxicity at 70.5 h: -3.3%

## CN1CC2(CCN(C(=O)c3cccnc3)CC2)c2cccc(F)c21
  cytotoxicity at 70.5 h: -0.505%

## COCCN1CC2(CCOCC2)c2cc(NC(=O)C3CC=CC3)ccc21
  cytotoxicity at 70.5 h: 28.4%

## CCN1C(=O)CC[C@]12CC[C@@H](NC(=O)NCc1cccnc1)CC2
  cytotoxicity at 70.5 h: -4.88%

## CN1C(=O)CC[C@]12CC[C@@H](NC(=O)NCc1cccnc1)CC2
  cytotoxicity at 70.5 h: -4%

## O=C(NCc1cccnc1)N[C@H]1CC[C@@]2(CCC(=O)N2CC2CC2)CC1
  cytotoxicity at 70.5 h: 8.65%

## O=C(NCCc1cccnc1)c1nc2c(s1)CCCN2C(=O)C1CC1
  cytotoxicity at 70.5 h: -7.13%

## COCC1c2c(cnn2C)CCN1C(=O)c1cscn1 (configuration not stated)
  cytotoxicity at 70.5 h: -1.37%

## Cc1nc(CNCC2Cn3nncc3CO2)cs1 (configuration not stated)
  cytotoxicity at 70.5 h: -2.11%

## Cc1noc(C)c1CNCC1Cn2nncc2CO1 (configuration not stated)
  cytotoxicity at 70.5 h: -2.84%

## O=C1CC[C@H]2[C@H](CCN2S(=O)(=O)C2CC2)N1CCN1CCCC1
  cytotoxicity at 70.5 h: 25.5%

## Cn1cccc1C(=O)N[C@H]1CN(Cc2ccoc2)[C@@H]2CCCO[C@H]12
  cytotoxicity at 70.5 h: 17.5%

## c1cnc(N2CCO[C@H]3CN(CC4CCOC4)C[C@H]32)cn1 (some centres not stated)
  cytotoxicity at 70.5 h: -2.13%

## CCC(=O)N1CCC2(CC1)C(c1cccnc1)CC(=O)N2CCOC (configuration not stated)
  cytotoxicity at 70.5 h: 1.53%

## COc1ccccc1CN1C[C@@H]2CN(C(C)=O)CCO[C@@H]2C1
  cytotoxicity at 70.5 h: -1.68%

## CC(=O)N1CCO[C@@H]2CN(Cc3ccccc3F)C[C@@H]2C1
  cytotoxicity at 70.5 h: -5.88%

## O=C(c1ccccc1F)N1CCC2(CC1)CC(Oc1ccccn1)CO2 (configuration not stated)
  cytotoxicity at 70.5 h: -4.93%

## O=C(c1ccco1)N1CCCC2(CCN(c3nncs3)C2)C1 (configuration not stated)
  cytotoxicity at 70.5 h: -5.1%

## COCCN1CCCCC12CC(=O)N(c1ccccc1OC)C2 (configuration not stated)
  cytotoxicity at 70.5 h: -2.67%

## CC1N(c2cnn(C)c2)C(=O)COC12CCN(Cc1ccco1)CC2 (configuration not stated)
  cytotoxicity at 70.5 h: -3.36%

## CC1N(c2cnn(C)c2)C(=O)COC12CCN(c1ncccn1)CC2 (configuration not stated)
  cytotoxicity at 70.5 h: -1.11%

## COc1cccc(CC(=O)N2CC[C@@H](OC)[C@@H]2Cc2cccnc2)c1
  cytotoxicity at 70.5 h: -4.93%

## COc1ccc(CC(=O)N2CC[C@@H](OC)[C@@H]2Cc2cccnc2)cc1
  cytotoxicity at 70.5 h: -4.94%

## O=C1CCCN1Cc1nnn2c1CN(c1cccnc1)CCC2
  cytotoxicity at 70.5 h: -8.56%

## c1cncc(N2CCCn3nnc(COCC4CC4)c3C2)c1
  cytotoxicity at 70.5 h: -7.98%

## CCn1nc(C)cc1C(=O)N1C[C@@H]2C[C@@H](C)O[C@@H]2C1
  cytotoxicity at 70.5 h: -7.68%

## Cn1ccnc1CN1CCC2(CC1)COC2
  cytotoxicity at 70.5 h: -7.76%

## Fc1cccc(CN2CCC3(CCCN3c3ncccn3)CC2)c1
  cytotoxicity at 70.5 h: 5.31%

## CS(=O)(=O)N1CCOCC2(CCN(Cc3ccoc3)CC2)C1
  cytotoxicity at 70.5 h: -3.92%

## COc1ncccc1CN1CCC2(CC1)CC(OCC1CC1)CO2 (configuration not stated)
  cytotoxicity at 70.5 h: -4.27%

## Cc1noc(C)c1CN1CC[C@H]2[C@@H]1CCC(=O)N2CC1CCOCC1
  cytotoxicity at 70.5 h: -3.53%

## CCN1C[C@@H]2[C@@H](OC)CCN(S(=O)(=O)c3ccccc3)[C@@H]2C1
  cytotoxicity at 70.5 h: 3.99%

## CN(C)C(=O)CN1CCCC2(CCN(c3ccsc3)C2=O)C1 (configuration not stated)
  cytotoxicity at 70.5 h: 23.7%

## COc1ccc(CN2CCCC3(CCN(c4ccsc4)C3=O)C2)cc1 (configuration not stated)
  cytotoxicity at 70.5 h: 2.29%

## Cc1ncsc1CN1C[C@@H]2COC[C@]2(C(=O)NCC2CC2)C1
  cytotoxicity at 70.5 h: -3.67%

## OCCN1CCOC2(CCCN(c3cccc(F)c3)C2)C1 (configuration not stated)
  cytotoxicity at 70.5 h: -7.62%

## O=C(NC1CCC1)[C@@H]1C[C@@H]2CCN(Cc3cccs3)C[C@@H]2O1
  cytotoxicity at 70.5 h: 7.52%

## Cc1cccc(CN2CCN3C[C@H](Oc4cncnc4)C[C@H]3C2)n1
  cytotoxicity at 70.5 h: -0.54%

## c1ccc(CN2CCN3C[C@H](Oc4cncnc4)C[C@H]3C2)nc1
  cytotoxicity at 70.5 h: -3.2%

## c1cncc(CN2Cc3nccn3CC(Cn3cccn3)C2)c1 (configuration not stated)
  cytotoxicity at 70.5 h: -6.13%

## c1cncc(N2CCCn3nnc(CN4CCCCC4)c3C2)c1
  cytotoxicity at 70.5 h: -0.156%

## Cc1ccc(CN2CC[C@@H]3O[C@@H](C(=O)N4CCN(C)CC4)C[C@@H]32)cc1
  cytotoxicity at 70.5 h: -1.43%

## Cc1noc(C)c1CN1CC[C@H]2[C@H]1CCN2CC1CCOCC1
  cytotoxicity at 70.5 h: -5.25%

## C[C@H]1CN(c2ccccn2)C[C@@]12CCN(Cc1cccnc1)C2=O
  cytotoxicity at 70.5 h: -0.624%

## Cn1cnc2c1C(COCC1CCOCC1)CN(C1CCOCC1)C2 (configuration not stated)
  cytotoxicity at 70.5 h: -25.6%

## CCn1cc2c(n1)CN(Cc1ccncc1)CC2COCC1CC1 (configuration not stated)
  cytotoxicity at 70.5 h: -17.6%

## c1cncc(COC[C@H]2CC[C@H]3[C@H](CCN3Cc3cccs3)O2)c1
  cytotoxicity at 70.5 h: 2.81%

## COc1ccc(CN2C[C@@H](N(C)Cc3ccco3)[C@H]3OCCC[C@H]32)cc1
  cytotoxicity at 70.5 h: -8.22%

## COCC1CC2(CCN(Cc3nccs3)CC2)CN1Cc1ccccn1 (configuration not stated)
  cytotoxicity at 70.5 h: 9.76%

## CN(C)CCN1CCCC12CCN(Cc1nccn1C)CC2
  cytotoxicity at 70.5 h: -0.128%

## CO[C@H]1CCN(Cc2cccs2)[C@@H]2CN(Cc3ccncc3)C[C@H]12
  cytotoxicity at 70.5 h: -2.84%

## Cc1ccc(CN2CCOC3(COCCN(CCN(C)C)C3)C2)o1 (configuration not stated)
  cytotoxicity at 70.5 h: -7.86%

## CN(Cc1cccnc1)C1CC2(CCN(c3ccccn3)CC2)C1
  cytotoxicity at 70.5 h: -8.74%
